Results taken from PubChem BioAssay AID1845194 (Molecular Pharmacology Branch, DTP, NCI, 2023).
pIC50: −log10 of the molar value. Several values for one entry are separate records, joined by “and”; a condition that tells them apart may be missing. Identical values can stand only once.

Test system: 287954-098-R-J1 tumor spheroid viability
Test: Anticancer human tumor 287954-098-R-J1 patient-derived Ewing sarcoma cell line growth inhibition
Settings: spheroids with HUVEC and MSC; for viability, T/C: stronger effect = lower value
Summary of the method: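 Complex spheroids of malignant cells with endothelial cells and mesenchymal stem cells; agents alone or combined, from near clinical Cmax (or 10 microM if unknown) down in half-log steps, 0.25% DMSO final.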
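Further: spheroids exposed to compound for 7 days before viability readout.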
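Wherever viability, T/C is given: luminescent signal taken as surrogate of viable cell content; 100% = DMSO vehicle control viability and lower means growth inhibition.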

Compound CC1COCCN1c1cc(-c2ccnn2C)c2ccnc(-c3ccn[nH]3)c2n1 (configuration not stated) + Cn1nnc2c(C(N)=O)ncn2c1=O has a pIC50 (curve of first compound, second compound 1 µM) of 6.77, a pIC50 (curve of first compound, second compound 3.16 µM) of 6.73 and a pIC50 (curve of first compound, second compound 10 µM) of 7.02. For the same compound, the pIC50 (curve of first compound, second compound 31.6 µM) was 7.01, the pIC50 (curve of first compound, second compound 100 µM) was > 7.50 and the viability, T/C (second compound 1 µM, first compound 0.0316 µM) was 112%. For the same compound, the viability, T/C (second compound 1 µM, first compound 0.1 µM) was 75.2%, the viability, T/C (second compound 1 µM, first compound 0.316 µM) was 21% and the viability, T/C (second compound 1 µM, first compound 1 µM) was 5.68%. The viability, T/C (second compound 1 µM, first compound 3.16 µM) was 1.55%, the viability, T/C (second compound 1 µM, first compound 10 µM) was 2.68% and the viability, T/C (second compound 3.16 µM, first compound 0.0316 µM) was 120%. For the same compound, the viability, T/C (second compound 3.16 µM, first compound 0.1 µM) was 91.1%, the viability, T/C (second compound 3.16 µM, first compound 0.316 µM) was 15.7% and the viability, T/C (second compound 3.16 µM, first compound 1 µM) was 4.89%. The viability, T/C (second compound 3.16 µM, first compound 3.16 µM) was 1.74%, the viability, T/C (second compound 3.16 µM, first compound 10 µM) was 2.56% and the viability, T/C (second compound 10 µM, first compound 0.0316 µM) was 114%. It also gave a viability, T/C (second compound 10 µM, first compound 0.1 µM) of 47.9%, a viability, T/C (second compound 10 µM, first compound 0.316 µM) of 9.18% and a viability, T/C (second compound 10 µM, first compound 1 µM) of 5.1%. For the same compound, the viability, T/C (second compound 10 µM, first compound 3.16 µM) was 1.63%, the viability, T/C (second compound 10 µM, first compound 10 µM) was 2.11% and the viability, T/C (second compound 31.6 µM, first compound 0.0316 µM) was 110%. For the same compound, the viability, T/C (second compound 31.6 µM, first compound 0.1 µM) was 49.3%, the viability, T/C (second compound 31.6 µM, first compound 0.316 µM) was 8.98% and the viability, T/C (second compound 31.6 µM, first compound 1 µM) was 3.51%. The viability, T/C (second compound 31.6 µM, first compound 3.16 µM) was 1.69%, the viability, T/C (second compound 31.6 µM, first compound 10 µM) was 2.41% and the viability, T/C (second compound 100 µM, first compound 0.0316 µM) was 12%. For the same compound, the viability, T/C (second compound 100 µM, first compound 0.1 µM) was 4.47%, the viability, T/C (second compound 100 µM, first compound 0.316 µM) was 2.32% and the viability, T/C (second compound 100 µM, first compound 1 µM) was 1.6%. It also gave a viability, T/C (second compound 100 µM, first compound 3.16 µM) of 1.28% and a viability, T/C (second compound 100 µM, first compound 10 µM) of 2.24%.

Cn1ncnc1[C@H]1c2n[nH]c(=O)c3cc(F)cc(c23)N[C@@H]1c1ccc(F)cc1 was tested, and the viability, T/C (compound 0.00949 µM) was 112% and 99.5% and 92.6%, the viability, T/C (compound 0.03 µM) was 101% and 104% and 107% and the viability, T/C (compound 0.0949 µM) was 98.5% and 97% and 105%. The viability, T/C (compound 0.3 µM) was 97.8% and 95.6% and 94.2%, the viability, T/C (compound 0.949 µM) was 2.74% and 25.4% and 16.7% and the viability, T/C (compound 3 µM) was 2.53% and 1.95% and 1.33%. For the same compound, the pIC50 (curve of compound) was 6.27 and 6.20 and 6.24.

COc1cc(C)[nH]c(=O)c1CN1CCc2c(Cl)cc(C(OC)C3COC3)c(Cl)c2C1=O (configuration not stated) + COc1cc2c(cc1O)CCNC21CSC2c3c(OC(C)=O)c(C)c4c(c3C(COC1=O)N1C(O)C3Cc5cc(C)c(OC)c(O)c5C(C21)N3C)OCO4 was tested, and the pIC50 (curve of first compound, second compound 30 pM) was < 5.00, the pIC50 (curve of first compound, second compound 94.9 pM) was < 5.00 and the pIC50 (curve of first compound, second compound 0.0003 µM) was < 5.00. The pIC50 (curve of first compound, second compound 0.000949 µM) was > 7.50, the pIC50 (curve of first compound, second compound 0.003 µM) was > 7.50 and the viability, T/C (second compound 30 pM, first compound 0.0316 µM) was 96.5%. The viability, T/C (second compound 30 pM, first compound 0.1 µM) was 94.2%, the viability, T/C (second compound 30 pM, first compound 0.316 µM) was 87.3% and the viability, T/C (second compound 30 pM, first compound 1 µM) was 92.8%. It also gave a viability, T/C (second compound 30 pM, first compound 3.16 µM) of 104%, a viability, T/C (second compound 30 pM, first compound 10 µM) of 89.9% and a viability, T/C (second compound 94.9 pM, first compound 0.0316 µM) of 108%. It also gave a viability, T/C (second compound 94.9 pM, first compound 0.1 µM) of 101%, a viability, T/C (second compound 94.9 pM, first compound 0.316 µM) of 94.5% and a viability, T/C (second compound 94.9 pM, first compound 1 µM) of 94.1%. For the same compound, the viability, T/C (second compound 94.9 pM, first compound 3.16 µM) was 91.3%, the viability, T/C (second compound 94.9 pM, first compound 10 µM) was 94.1% and the viability, T/C (second compound 0.0003 µM, first compound 0.0316 µM) was 104%. The viability, T/C (second compound 0.0003 µM, first compound 0.1 µM) was 102%, the viability, T/C (second compound 0.0003 µM, first compound 0.316 µM) was 92.1% and the viability, T/C (second compound 0.0003 µM, first compound 1 µM) was 95.5%. For the same compound, the viability, T/C (second compound 0.0003 µM, first compound 3.16 µM) was 90.9%, the viability, T/C (second compound 0.0003 µM, first compound 10 µM) was 87.9% and the viability, T/C (second compound 0.000949 µM, first compound 0.0316 µM) was 0.52%. It also gave a viability, T/C (second compound 0.000949 µM, first compound 0.1 µM) of 0.35%, a viability, T/C (second compound 0.000949 µM, first compound 0.316 µM) of 0.34% and a viability, T/C (second compound 0.000949 µM, first compound 1 µM) of 0.36%. For the same compound, the viability, T/C (second compound 0.000949 µM, first compound 3.16 µM) was 0.25%, the viability, T/C (second compound 0.000949 µM, first compound 10 µM) was 0.33% and the viability, T/C (second compound 0.003 µM, first compound 0.0316 µM) was 0.25%. For the same compound, the viability, T/C (second compound 0.003 µM, first compound 0.1 µM) was 0.27%, the viability, T/C (second compound 0.003 µM, first compound 0.316 µM) was 0.22% and the viability, T/C (second compound 0.003 µM, first compound 1 µM) was 0.16%. It also gave a viability, T/C (second compound 0.003 µM, first compound 3.16 µM) of 0.16% and a viability, T/C (second compound 0.003 µM, first compound 10 µM) of 0.25%.
